Consider 1 molecule from patent publication US4518606A, “Pharmaceutical compositions” (Beecham Group Limited, priority 1979, dated 1985).

Holding throughout (assay type): in vivo
Data set [1] concerns rats. As to the kind of experiment: sub-acute toxicity, intramuscular, 2 weeks, male and female rats. The note with it: 150 mg/kg (5 ml/kg of 3% solution). The protocol:
Over a period of 2 weeks, 10 male rats and female rats receive 150 mg/kg of benzyl alcohol, that is to say 5 ml/kg of 3% aqueous solution by the intramuscular route. […] Within the context of the anatomopathological examination, the liver, kidneys, spleen, lungs, suprarenals, testicles and ovaries are normal.

For data set [2], the system named is rats. As to the kind of experiment: acute toxicity, intramuscular, rats. The following applies: 750 mg/kg in 3% solution (25 ml/kg). The protocol:
(§1) No mortality is observed in mice or rats treated at the rate of 750 mg/kg of benzyl alcohol in 3% solution (viz 25 ml/kg of solution) by the intramuscular route.

The test system of a further data set is mice. As to the kind of experiment: acute toxicity, intramuscular, mice. The note with it: 750 mg/kg in 3% solution (25 ml/kg). The protocol: as §1

`OCc1ccccc1` [benzyl alcohol]: in the data set with rats [1], the abnormal symptoms entry is reported as “No abnormal symptom appears”; the “anatomopathological examination (liver, kidneys, spleen, lungs, suprarenals, testicles and ovaries)” value was “normal”; the haematological variations entry is “within the limits of physiological variations”; the “variations in blood and urine biochemistry” value is reported as “within the limits of physiological variations”. In addition, the variations in weight result in the data set with rats [1] was “within the limits of physiological variations”. Besides, the mortality entry in the data set with rats [2] is on record as “No mortality”. Moreover, the mortality result in the data set on mice is “No mortality”.
